# PubChem BioAssay (NCI)
#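 Abbreviation: GI50, concentration required for 50% inhibition of growth. The concentration for full growth arrest is given as TGI.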
# Legend:
# Test in all cases: DTP human tumour cell line panel, 384-well format
# [1] = test system: OVCAR-4 ovarian
# [2] = test system: MDA-MB-435 melanoma
# [3] = test system: SW-620 colon
# [4] = test system: EKVX NSCLC
# [5] = test system: SF-268 CNS
# [6] = test system: MCF7 breast
# [7] = test system: SR leukemia
# [8] = test system: SK-OV-3 ovarian
# [9] = test system: BT-549 breast
# [10] = test system: NCI-H23 lung
# [11] = test system: IGROV1 ovarian
# [12] = test system: OVCAR-8 ovarian
# [13] = test system: SNB-19 CNS
# [14] = test system: DU-145 prostate
# [15] = test system: SK-MEL-28 melanoma
# [16] = test system: A498 renal
# [17] = test system: SNB-75 CNS
# [18] = test system: OVCAR-3 ovarian
# [19] = test system: LOX IMVI melanoma
# [20] = test system: T-47D breast
# [21] = test system: CAKI-1 renal
# [22] = test system: COLO 205 colon
# [23] = test system: ACHN renal
# [24] = test system: HT29 colon
# [25] = test system: RXF 393 renal
# [26] = test system: NCI/ADR-RES ovarian
# [27] = test system: HOP-92 NSCLC
# [28] = test system: SF-295 CNS
# [29] = test system: NCI-H322M lung
# [30] = test system: TK-10 renal
# [31] = test system: UACC-62 melanoma
# [32] = test system: PC-3 prostate
# [33] = test system: NCI-H226 lung
# [34] = test system: RPMI-8226 leukemia
# [35] = test system: KM12 colon
# [36] = test system: SN12C renal
# [37] = test system: UACC-257 melanoma
# [38] = test system: U251 glioblastoma
# [39] = test system: MDA-MB-231 breast
# [40] = test system: SF-539 CNS
# [41] = test system: OVCAR-5 ovarian
# [42] = test system: A549 NSCLC
# [43] = test system: MOLT-4 leukemia
# [44] = test system: UO-31 renal
# [45] = test system: 786-0 renal
# [46] = test system: NCI-H460 NSCLC
# [47] = test system: HOP-62 NSCLC
# [48] = test system: MDA-MB-468 breast
# [49] = test system: HCT-15 colon
# [50] = test system: HCC-2998 colon
# [51] = test system: HCT-116 colon
# [52] = test system: HS 578T breast
# [53] = test system: NCI-H522 lung
# [54] = test system: SK-MEL-5 melanoma
# [55] = test system: M14 melanoma
# [56] = test system: MALME-3M melanoma
smiles,measurement,setting,value
Cn1cnc2c(F)c(Nc3ccc(Br)cc3Cl)c(C(=O)NOCCO)cc21,GI50,[1],14.4 µM
same,TGI,[1],> 100 µM
same,GI50,[2],0.266 µM
same,TGI,[2],> 100 µM
same,GI50,[3],0.039 µM
same,TGI,[3],> 100 µM
same,GI50,[4],18.6 µM
same,TGI,[4],> 100 µM
same,GI50,[5],> 100 µM
same,TGI,[5],> 100 µM
same,GI50,[6],> 100 µM
same,TGI,[6],> 100 µM
same,GI50,[7],47 µM
same,TGI,[7],> 100 µM
same,GI50,[8],> 100 µM
same,TGI,[8],> 100 µM
same,GI50,[9],6.05 µM
same,TGI,[9],52.1 µM
same,GI50,[10],0.26 µM
same,TGI,[10],9.91 µM
same,GI50,[11],0.914 µM
same,TGI,[11],47 µM
same,GI50,[12],67.4 µM
same,TGI,[12],> 100 µM
same,GI50,[13],51.5 µM
same,TGI,[13],> 100 µM
same,GI50,[14],42.4 µM
same,TGI,[14],> 100 µM
same,GI50,[15],0.0217 µM
same,TGI,[15],0.147 µM
same,GI50,[16],3.46 µM
same,TGI,[16],35.4 µM
same,GI50,[17],3.12 µM
same,TGI,[17],85.9 µM
same,GI50,[18],44.9 µM
same,TGI,[18],> 100 µM
same,GI50,[19],0.425 µM
same,TGI,[19],13.5 µM
same,GI50,[20],84.8 µM
same,TGI,[20],> 100 µM
same,GI50,[21],1.73 µM
same,TGI,[21],> 100 µM
same,GI50,[22],0.02 µM
same,TGI,[22],0.122 µM
same,GI50,[23],6.87 µM
same,TGI,[23],> 100 µM
same,GI50,[24],0.0948 µM
same,TGI,[24],> 100 µM
same,GI50,[25],0.101 µM
same,TGI,[25],12.3 µM
same,GI50,[26],> 100 µM
same,TGI,[26],> 100 µM
same,GI50,[27],2.08 µM
same,TGI,[27],14.5 µM
same,GI50,[28],> 100 µM
same,TGI,[28],> 100 µM
same,GI50,[29],0.363 µM
same,TGI,[29],> 100 µM
same,GI50,[30],42.4 µM
same,TGI,[30],> 100 µM
same,GI50,[31],0.0318 µM
same,TGI,[31],0.311 µM
same,GI50,[32],> 100 µM
same,TGI,[32],> 100 µM
same,GI50,[33],0.267 µM
same,TGI,[33],38.7 µM
same,GI50,[34],21.1 µM
same,TGI,[34],> 100 µM
same,GI50,[35],0.481 µM
same,TGI,[35],> 100 µM
same,GI50,[36],7.8 µM
same,TGI,[36],> 100 µM
same,GI50,[37],0.0456 µM
same,TGI,[37],0.278 µM
same,GI50,[38],19.5 µM
same,TGI,[38],> 100 µM
same,GI50,[39],1.06 µM
same,TGI,[39],17.3 µM
same,GI50,[40],12.2 µM
same,TGI,[40],56.5 µM
same,GI50,[41],0.205 µM
same,TGI,[41],> 100 µM
same,GI50,[42],0.58 µM
same,TGI,[42],> 100 µM
same,GI50,[43],49 µM
same,TGI,[43],> 100 µM
same,GI50,[44],3.21 µM
same,TGI,[44],21.2 µM
same,GI50,[45],12.2 µM
same,TGI,[45],> 100 µM
same,GI50,[46],> 100 µM
same,TGI,[46],> 100 µM
same,GI50,[47],1.22 µM
same,TGI,[47],> 100 µM
same,GI50,[48],55.3 µM
same,TGI,[48],> 100 µM
same,GI50,[49],21.5 µM
same,TGI,[49],> 100 µM
same,GI50,[50],0.0284 µM
same,TGI,[50],1.3 µM
same,GI50,[51],0.553 µM
same,TGI,[51],12.2 µM
same,GI50,[52],17.5 µM
same,TGI,[52],> 100 µM
same,GI50,[53],42.8 µM
same,TGI,[53],> 100 µM
same,GI50,[54],0.0449 µM
same,TGI,[54],0.616 µM
same,GI50,[55],0.0211 µM
same,TGI,[55],0.144 µM
same,GI50,[56],0.0114 µM
same,TGI,[56],0.0363 µM
